{"source": "patent US20200009173A1", "about": "“TRIAZOLE-CONTAINING MACROLIDES AND OPHTHALMIC USES THEREFOR” (Tetard, Inc., priority 2017, published 2020)", "key": {"Chlamydia trachomatis": {"tested_on": "Chlamydia trachomatis", "test": "MIC, Chlamydia trachomatis", "format": "cell-based", "conditions": "N = 10"}, "Streptococcus pyogenes": {"tested_on": "Streptococcus pyogenes", "test": "MIC, Streptococcus pyogenes", "format": "cell-based"}, "H. influenzae": {"tested_on": "H. influenzae", "test": "MICs of solithromycin and comparator drugs, H. influenzae (30 species)", "format": "cell-based", "from_the_text": "(§1) EXAMPLE. The formulations described herein show overall higher potency against ocular pathogens than commercial standards.\n(§2) MICs (μg/ml) of Solithromycin and Comparator Drugs against Bacterial Species"}, "Corynebacterium spp.": {"tested_on": "Corynebacterium spp.", "test": "MIC, Corynebacterium spp.", "format": "cell-based", "conditions": "N = 10"}, "S. pneumoniae": {"tested_on": "S. pneumoniae", "test": "MICs of solithromycin and comparator drugs, S. pneumoniae (30 species)", "format": "cell-based", "from_the_text": "as §1, §2"}, "Staphylococcus aureus": {"tested_on": "Staphylococcus aureus", "test": "MIC, Staphylococcus aureus", "format": "cell-based", "conditions": "N = 201"}, "Mycoplasma pneumoniae": {"tested_on": "Mycoplasma pneumoniae", "test": "MIC, Mycoplasma pneumoniae (38 strains)", "format": "cell-based"}, "[1]": {"conditions": "speed of uptake and ultimate tissue concentration"}, "[2]": {"test": "Protein binding in plasma", "format": "in vitro ADME"}, "[3]": {"tested_on": "Viridans group streptococci", "test": "MIC, Viridans group streptococci", "format": "cell-based", "conditions": "N = 51"}, "S. epidermidis": {"tested_on": "S. epidermidis", "test": "MICs of solithromycin and comparator drugs, S. epidermidis (30 species)", "format": "cell-based", "from_the_text": "as §1, §2"}, "Neisseria gonorrhoeae": {"tested_on": "Neisseria gonorrhoeae", "test": "MIC, Neisseria gonorrhoeae", "format": "cell-based", "conditions": "N = 34"}, "MSRA": {"tested_on": "MSRA", "test": "MICs of solithromycin and comparator drugs, MSRA (30 species)", "format": "cell-based", "from_the_text": "as §1, §2"}}, "note": "Where two headings read alike, the source gives them in different places."}
{"compound": "CC[C@H]1OC(=O)[C@@](C)(F)C(=O)[C@H](C)[C@@H](O[C@@H]2O[C@H](C)C[C@H](N(C)C)[C@H]2O)[C@](C)(OC)C[C@@H](C)C(=O)[C@H](C)[C@H]2N(CCCCn3cc(-c4cccc(N)c4)nn3)C(=O)O[C@]12C", "note": "[CEM-101, solithromycin]", "values": [{"measurement": "MIC50", "setting": "Chlamydia trachomatis; Chlamydia trachomatis", "result": 250, "unit": "ng/mL"}, {"measurement": "MIC90", "setting": "Chlamydia trachomatis; Chlamydia trachomatis", "result": 250, "unit": "ng/mL"}, {"measurement": "MIC Range", "setting": "Chlamydia trachomatis", "result": "125 to 500", "unit": "ng/mL"}, {"measurement": "MIC Range", "setting": "Streptococcus pyogenes; N = 407 (CEM-101)", "result": "≤0.03-0.5 ^ μg/mL"}, {"measurement": "MIC50", "setting": "Streptococcus pyogenes; Streptococcus pyogenes", "result": "≤ 30", "unit": "ng/mL"}, {"measurement": "MIC90", "setting": "Streptococcus pyogenes; Streptococcus pyogenes, 100 strains", "result": 30, "unit": "ng/mL"}, {"measurement": "MIC90", "setting": "Streptococcus pyogenes; Streptococcus pyogenes, N = 407 (CEM-101), N = 100 (azithromycin)", "result": "≤ 30", "unit": "ng/mL"}, {"measurement": "I (intermediate susceptibility)", "setting": "H. influenzae", "result": 0, "unit": "%"}, {"measurement": "MIC Range", "setting": "H. influenzae", "result": "1000 to 4000", "unit": "ng/mL"}, {"measurement": "NS (not susceptible)", "setting": "H. influenzae", "result": 0, "unit": "%"}, {"measurement": "S (susceptible)", "setting": "H. influenzae", "result": 100, "unit": "%"}, {"measurement": "MIC50", "setting": "H. influenzae; Haemophilus influenzae", "result": 2000, "unit": "ng/mL"}, {"measurement": "MIC90", "setting": "H. influenzae; Haemophilus influenzae", "result": 2000, "unit": "ng/mL"}, {"measurement": "MIC50", "setting": "Corynebacterium spp.; Corynebacterium", "result": 15, "unit": "ng/mL"}, {"measurement": "MIC90", "setting": "Corynebacterium spp.; Corynebacterium", "result": 500, "unit": "ng/mL"}, {"measurement": "MIC Range", "setting": "Corynebacterium spp.", "result": "≤0.008-16 ^ μg/mL"}, {"measurement": "I (intermediate susceptibility)", "setting": "S. pneumoniae", "result": 0, "unit": "%"}, {"measurement": "MIC Range", "setting": "S. pneumoniae", "result": "≤0.001-0.25 ^ μg/ml"}, {"measurement": "NS (not susceptible)", "setting": "S. pneumoniae", "result": 0, "unit": "%"}, {"measurement": "S (susceptible)", "setting": "S. pneumoniae", "result": 100, "unit": "%"}, {"measurement": "MIC50", "setting": "S. pneumoniae; Streptococcus pneumoniae", "result": 2, "unit": "ng/mL"}, {"measurement": "MIC90", "setting": "S. pneumoniae; Streptococcus pneumoniae", "result": 120, "unit": "ng/mL"}, {"measurement": "MIC50", "setting": "Staphylococcus aureus", "result": 120, "unit": "ng/mL"}, {"measurement": "MIC90", "setting": "Staphylococcus aureus", "result": "> 16000", "unit": "ng/mL"}, {"measurement": "MIC90", "setting": "Mycoplasma pneumoniae; Mycoplasma, 38 strains, read-out: MIC90", "result": 0.125, "unit": "ng/mL"}, {"measurement": "MIC50", "setting": "Mycoplasma pneumoniae; Mycoplasma, N = 38", "result": 0.032, "unit": "ng/mL"}, {"measurement": "MIC90", "setting": "Mycoplasma pneumoniae; N = 38", "result": 0.125, "unit": "ng/mL"}, {"measurement": "MIC Range", "setting": "Mycoplasma pneumoniae; N = 38", "result": "≤6.3e-05 to 500", "unit": "ng/mL"}, {"measurement": "tissue distribution relative to AZI", "setting": "[1]", "result": 10, "unit": "fold"}, {"measurement": "fraction unbound", "setting": "[2]", "result": 0.14}, {"measurement": "MIC50", "setting": "[3]", "result": "≤ 8", "unit": "ng/mL"}, {"measurement": "MIC90", "setting": "[3]", "result": 60, "unit": "ng/mL"}, {"measurement": "MIC Range", "setting": "[3]", "result": "≤0.008-0.12 ^ μg/mL"}, {"measurement": "I (intermediate susceptibility)", "setting": "S. epidermidis", "result": 3, "unit": "%"}, {"measurement": "NS (not susceptible)", "setting": "S. epidermidis", "result": 17, "unit": "%"}, {"measurement": "S (susceptible)", "setting": "S. epidermidis", "result": 80, "unit": "%"}, {"measurement": "MIC50", "setting": "S. epidermidis; Staphylococcus epidermidis", "result": 15, "unit": "ng/mL"}, {"measurement": "MIC90", "setting": "S. epidermidis; Staphylococcus epidermidis", "result": 32000, "unit": "ng/mL"}, {"measurement": "MIC Range", "setting": "Neisseria gonorrhoeae", "result": "30 to 250", "unit": "ng/mL"}, {"measurement": "MIC50", "setting": "Neisseria gonorrhoeae; Neisseria gonorrhoeae", "result": 60, "unit": "ng/mL"}, {"measurement": "MIC90", "setting": "Neisseria gonorrhoeae; Neisseria gonorrhoeae", "result": 120, "unit": "ng/mL"}, {"measurement": "MIC50", "setting": "MSRA", "result": 30, "unit": "ng/mL"}, {"measurement": "MIC90", "setting": "MSRA", "result": 64000, "unit": "ng/mL"}, {"measurement": "I (intermediate susceptibility)", "setting": "MSRA; 30 species", "result": 0, "unit": "%"}, {"measurement": "NS (not susceptible)", "setting": "MSRA; 30 species", "result": 30, "unit": "%"}, {"measurement": "S (susceptible)", "setting": "MSRA; 30 species", "result": 70, "unit": "%"}]}
